Laboratory results as given in patent publication US4263427A, “Monensin urethane derivatives” (priority 1979, dated 1981).
Converted amounts (≈) assume the structure as drawn. Read-outs that look alike come from different tables or passages of the source.

Columns and labels:
rumen fluid = details: control 100
MycoBacterium phiel 355 = assay: Minimum Inhibitory Concentration, agarwell diffusion assay (Table 6); type: cell-based; details: for MIC: Mycobacterium, 355, read-out: Minimum Inhibitory Concentration, MycoBacterium phiel 355
Text: (§1) (a) Lowest twofold dilution giving zone of inhibition in the agarwell
(§2) (b) NRRL collection number, all the rest ate ATCC numbers.

Bacillus sp. E 27859 = assay: as above; type: cell-based; details: for MIC: Bacillus
Text: as §1, §2

Bacillus sp. TA 27860 = assay: as above; type: cell-based; details: for MIC: Bacillus
Text: as §1, §2

[1] = tested on: Streptococcus faecium 8043; assay: as above; type: cell-based
Text: as §1, §2

[2] = tested on: Streptococcus cellulosac 3313; assay: as above; type: cell-based; details: for MIC: Streptococcus, 3313, read-out: Minimum Inhibitory Concentration, Streptococcus cellulosac 3313
Text: as §1, §2

Bacillus subtilis 583 = assay: as above; type: cell-based
Text: as §1, §2

[3] = tested on: Paceilomyces variotl 25820; assay: as above; type: cell-based; details: for MIC: read-out: Minimum Inhibitory Concentration, Paceilomyces variotl 25820
Text: as §1, §2

Staph. aureus 6538 = assay: as above; type: cell-based; details: for MIC: Staphylococcus aureus, 6538, read-out: Minimum Inhibitory Concentration, Staph. aureus 6538
Text: as §1, §2

Sarcina lutca 9341 = assay: as above; type: cell-based; details: for MIC: Sarcina, 9341, read-out: Minimum Inhibitory Concentration, Sarcina lutca 9341
Text: as §1, §2

Bacillus megaterium 8CU = assay: as above; type: cell-based; details: for MIC: Priestia megaterium, 8CU, read-out: Minimum Inhibitory Concentration, Bacillus megaterium 8CU
Text: as §1, §2

[4] = SP.E27859, Bacillus sp. E 27859, read-out: Minimum Inhibitory Concentration
[5] = SP.TA27860, Bacillus sp. TA 27860, read-out: Minimum Inhibitory Concentration
[6] = Enterococcus faecium, 8043, Streptococcus faecium 8043, read-out: Minimum Inhibitory Concentration
[7] = Bacillus subtilis, 583, Bacillus subtilis 583 (NRRL), read-out: Minimum Inhibitory Concentration

Structure (SMILES): CC[C@@]1([C@@H]2O[C@@H]([C@H]3O[C@@](O)(CO)[C@H](C)C[C@@H]3C)C[C@@H]2C)CC[C@H]([C@]2(C)CC[C@]3(C[C@H](O)[C@@H](C)[C@@H]([C@@H](C)[C@@H](OC)[C@H](C)C(=O)O)O3)O2)O1 [Monensin]
- Rate of Gas Production, Percent Production of Control Fermentations (rumen fluid; 10 ppm): 85%
- Total VFA, Percent Production of Control Fermentations (rumen fluid; 10 ppm): 110.7%
- Rate of Gas Production, Percent Production of Control Fermentations (rumen fluid; 50 ppm): 89%
- Total VFA, Percent Production of Control Fermentations (rumen fluid; 50 ppm): 105.3%

Structure (SMILES): COC(C(C)C(=O)O)C(C)C1OC2(CCC(C)(C3CCC(C)(C4OC(C5OC(O)(COC(=O)NC(C)c6ccccc6)C(C)CC5C)CC4C)O3)O2)CC(O)C1C [Monensin B, (S)-1-phenethylurethane]
- Minimum Inhibitory Concentration (MycoBacterium phiel 355; MycoBacterium phiel 355): 6.3 meg/ml
- Minimum Inhibitory Concentration (Bacillus sp. E 27859; Bacillus sp. E 27859, listed as Monensin B,(S)-1-phenethylurethane): 0.1 meg/ml
- Minimum Inhibitory Concentration (Bacillus sp. TA 27860; Bacillus sp. TA 27860, listed as Monensin B,(S)-1-phenethylurethane): 0.2 meg/ml
- Minimum Inhibitory Concentration ([1]; Streptococcus faecium 8043, listed as Monensin B,(S)-1-phenethylurethane): 0.2 meg/ml
- Minimum Inhibitory Concentration ([2]; Streptococcus cellulosac 3313, listed as Monensin B,(S)-1-phenethylurethane): 6.3 meg/ml
- Minimum Inhibitory Concentration (Bacillus subtilis 583; Bacillus subtilis 583 (NRRL)): 0.8 meg/ml
- Minimum Inhibitory Concentration ([3]; Paceilomyces variotl 25820, listed as Monensin B,(S)-1-phenethylurethane): 6.3 meg/ml
- Minimum Inhibitory Concentration (Staph. aureus 6538; Staph. aureus 6538, listed as Monensin B,(S)-1-phenethylurethane): 1.6 meg/ml
- Minimum Inhibitory Concentration (Sarcina lutca 9341; Sarcina lutca 9341): 1.6 meg/ml
- Minimum Inhibitory Concentration (Bacillus megaterium 8CU; Bacillus megaterium 8CU, listed as Monensin B,(S)-1-phenethylurethane): 0.4 meg/ml

Structure (SMILES): CCC1(C2OC(C3OC(O)(COC(=O)Nc4ccc(OC)cc4)C(C)CC3C)CC2C)CCC(C2(C)CCC3(CC(O)C(C)C(C(C)C(OC)C(C)C(=O)O)O3)O2)O1 (stereo not drawn) [Monensin A,4-methoxyphenylurethane]
- MIC (MycoBacterium phiel 355): 1.6 µg/mL (≈ 1.95 µM)
- MIC (Bacillus sp. E 27859; SP.E27859, read-out: Minimum Inhibitory Concentration, Bacillus sp. E 27859): 0.1 µg/mL (≈ 0.122 µM)
- MIC (Bacillus sp. TA 27860; SP.TA27860, read-out: Minimum Inhibitory Concentration, Bacillus sp. TA 27860): 6.3 µg/mL (≈ 7.68 µM)
- MIC ([1]; Enterococcus faecium, 8043, read-out: Minimum Inhibitory Concentration, Streptococcus faecium 8043): 0.4 µg/mL (≈ 0.488 µM)
- MIC [2]: 6.3 µg/mL (≈ 7.68 µM)
- MIC (Bacillus subtilis 583; Bacillus subtilis, 583, read-out: Minimum Inhibitory Concentration, Bacillus subtilis 583 (NRRL)): 0.8 µg/mL (≈ 0.976 µM)
- MIC (Staph. aureus 6538): 1.6 µg/mL (≈ 1.95 µM)
- MIC (Sarcina lutca 9341): 1.6 µg/mL (≈ 1.95 µM)
- MIC (Bacillus megaterium 8CU): 0.8 µg/mL (≈ 0.976 µM)

Structure (SMILES): CCCCNC(=O)OCC1(O)OC(C2CC(C)C(C3(CC)CCC(C4(C)CCC5(CC(O)C(C)C(C(C)C(OC)C(C)C(=O)O)O5)O4)O3)O2)C(C)CC1C (stereo not drawn) [Monensin A, N-butylurethane]
- MIC (MycoBacterium phiel 355): 6.3 µg/mL (≈ 8.18 µM)
- MIC (Bacillus sp. E 27859; [4]): 0.2 µg/mL (≈ 0.26 µM)
- MIC (Bacillus sp. TA 27860; [5]): 0.4 µg/mL (≈ 0.519 µM)
- MIC [1, 6]: 0.2 µg/mL (≈ 0.26 µM)
- MIC [2]: 3.1 µg/mL (≈ 4.03 µM)
- MIC (Bacillus subtilis 583; [7]): 0.4 µg/mL (≈ 0.519 µM)
- MIC [3]: 6.3 µg/mL (≈ 8.18 µM)
- MIC (Staph. aureus 6538): 1.6 µg/mL (≈ 2.08 µM)
- MIC (Sarcina lutca 9341): 1.6 µg/mL (≈ 2.08 µM)
- MIC (Bacillus megaterium 8CU): 0.8 µg/mL (≈ 1.04 µM)

Structure (SMILES): CCC1(C2OC(C3OC(O)(COC(=O)NC)C(C)CC3C)CC2C)CCC(C2(C)CCC3(CC(O)C(C)C(C(C)C(OC)C(C)C(=O)O)O3)O2)O1 (stereo not drawn) [Monensin A, n-methylurethane]
- MIC (Bacillus sp. E 27859; [4]): 6.3 µg/mL (≈ 8.65 µM)
- MIC (Bacillus sp. TA 27860; [5]): 12.5 µg/mL (≈ 17.2 µM)
- MIC [1, 6]: 1.6 µg/mL (≈ 2.2 µM)
- MIC (Bacillus subtilis 583; [7]): 1.6 µg/mL (≈ 2.2 µM)
- MIC (Staph. aureus 6538): 25 µg/mL (≈ 34.3 µM)
- MIC (Sarcina lutca 9341): 25 µg/mL (≈ 34.3 µM)
- MIC (Bacillus megaterium 8CU): 6.3 µg/mL (≈ 8.65 µM)

Structure (SMILES): CCC1(C2OC(C3OC(O)(COC(=O)Nc4ccc(Oc5ccccc5)cc4)C(C)CC3C)CC2C)CCC(C2(C)CCC3(CC(O)C(C)C(C(C)C(OC)C(C)C(=O)O)O3)O2)O1 (stereo not drawn) [Monensin A, 4-phenoxyphenylurethane]
- MIC (MycoBacterium phiel 355): 1.6 µg/mL (≈ 1.81 µM)
- MIC (Bacillus sp. E 27859; [4]): 0.4 µg/mL (≈ 0.453 µM)
- MIC (Bacillus sp. TA 27860; [5]): 0.2 µg/mL (≈ 0.227 µM)
- MIC [1, 6]: 0.1 µg/mL (≈ 0.113 µM)
- MIC [2]: 0.8 µg/mL (≈ 0.907 µM)
- MIC (Bacillus subtilis 583; [7]): 0.4 µg/mL (≈ 0.453 µM)
- MIC [3]: 0.8 µg/mL (≈ 0.907 µM)
- MIC (Staph. aureus 6538): 0.4 µg/mL (≈ 0.453 µM)
- MIC (Sarcina lutca 9341): 0.4 µg/mL (≈ 0.453 µM)
- MIC (Bacillus megaterium 8CU): 0.4 µg/mL (≈ 0.453 µM)

Structure (SMILES): CCC1(C2OC(C3OC(O)(COC(=O)Nc4ccc(C(C)=O)cc4)C(C)CC3C)CC2C)CCC(C2(C)CCC3(CC(O)C(C)C(C(C)C(OC)C(C)C(=O)O)O3)O2)O1 (stereo not drawn) [Monensin A,4-(methylcarbonyl) phenylurethane]
- MIC (MycoBacterium phiel 355): 6.3 µg/mL (≈ 7.57 µM)
- MIC (Bacillus sp. E 27859; [4]): 0.2 µg/mL (≈ 0.24 µM)
- MIC (Bacillus sp. TA 27860; [5]): 0.8 µg/mL (≈ 0.961 µM)
- MIC [1, 6]: 0.8 µg/mL (≈ 0.961 µM)
- MIC [2]: 3.1 µg/mL (≈ 3.73 µM)
- MIC (Bacillus subtilis 583; [7]): 1.6 µg/mL (≈ 1.92 µM)
- MIC [3]: 6.3 µg/mL (≈ 7.57 µM)
- MIC (Staph. aureus 6538): 1.6 µg/mL (≈ 1.92 µM)
- MIC (Sarcina lutca 9341): 1.6 µg/mL (≈ 1.92 µM)
- MIC (Bacillus megaterium 8CU): 1.6 µg/mL (≈ 1.92 µM)
